Tests used:
NF-κB [1] = experiment: NF-κB expression by western blotting, HEK-293; type: cell-based; settings: HEK-293 (parental cells) exposed to α-lipoic acid
From the text: (§1) Alpha-lipoic acid increased HEK-499 cells, which were engineered to be resistant to chemotherapies and radiotherapies by depleting Raf Kinase inhibitory protein resistance to lethal doses of cisplatin, a chemical used in cancer therapy.

NF-κB [2] = experiment: NF-κB expression by western blotting, HEK-499; type: cell-based; settings: HEK-499 cells exposed to α-lipoic acid
From the text: as §1

[3] = test system: diabetic fibroblasts (DFs); experiment: LDH release assay (necrotic cell death) in fibroblasts; type: cell-based, rat; settings: lipoic acid 500 μM, Nrf2-dependent
From the text: To determine the effect of α-lipoic acid on isolated cells from normal and diabetic rats, primary rat fibroblasts were derived from dorsal skin biopsies performed on four diabetic Coto Kakizaki rats (DFs) and four age-matched (12-14 months) and sex-matched (female) Wistar control rats (CFs). After sterilization in povidine solution, the rat skin was washed in sterile water and rinsed in 70% ethanol in phosphate-buffered saline (PBS). The epidermis and dermis were separated following overnight incubation in 0.25% Trypsin/EDTA at 4° C. Samples were washed, diced and digested for thirty minutes at 37° C. in collagenase type I (250 U/ml) dissolved in Dulbecco's modified Eagle medium (DMEM; Invitrogen) containing penicillin (100 U/ml), 2 mM L-glutamine and 26 mM HEPES. After collagenase treatment, the cells were dislodged, centrifuged and resuspended in medium supplemented with 10% fetal bovine serum. The cells were grown under standard conditions, and the medium was changed every three to four days. Control and diabetic fibroblasts were grown under normo-glycemic conditions (5.5 mM glucose) and used in experiments at passage 3 to 5.
Fibroblasts were seeded at 1×10^4 cells/well on a 96-well plate. […] Quantification of cell viability was assessed using a Cell Counting Kit-8 (Dojindo, Kumamoto, Japan). […]

aortic vessels = experiment: Dihydroethidium / ethidium bromide fluorescence of aortic sections; type: in vivo, rat; settings: LA-treated diabetic rats
Method: Dihydroethidium (DHE), an oxidative fluorescent dye, was used to localize superoxide production in situ. DHE is oxidized on reaction with superoxide to ethidium bromide, which binds to DNA in the nucleus and fluoresces. Arteries were embedded in OCT medium, frozen and cryosectioned. Vascular sections were incubated with DHE at a concentration (10^−6 mol/l) at 37° C. for 30 minutes. DHE images from serial sections were obtained using a Zeiss Axioplan 2000 fluorescence microscope.

caspase 3/7 = experiment: Caspase 3/7 activity in aorta (APO-ONE assay); type: in vivo, rat; settings: chronic LA treatment, GK rats
Method: For detection of caspase 3-like activity, protein was isolated and caspase activity was detected in resulting supernatant using an APO-ONE homogenous caspase 3/7 assay (Promega). With regard to subcellular fractionation and western blotting, aortic tissue nuclear extracts were prepared and protein (40 μg) was loaded in each well of […] polyacrylamide gel. Separated polypeptide was transferred to nitrocellulose membrane IBio-Rad) and probed with anti NFκB at a 1:2,000 […]. Chemiluminescent detection was performed by an ECL Western Blotting Detection Kit®.

TNF-α [4] = experiment: Aortic mRNA expression by QRT-PCR, TNF-α; type: in vivo, rat; settings: GK rats, LA chronic therapy
Method: Further, with regard to quantitative real-time polymerase chain reactions (PCR) in the study, total RNA from the arterial samples was isolated using TRIZOL® reagent, and RNA integrity was verified by agarose gel electrophoresis and quantified by spectrophotometry. Reverse transcription reaction of total RNA (5 μg) was performed using a superscript 111 first-strand synthesis system. Quantitative real-time PCR was performed using fast SYBR Green QPCR. […]
The housekeeping gene beta-actin was used for internal normalization. Fidelity of the PCR reaction was determined by melting temperature analysis. PCR efficiency for each primer pair was determined by quantitating amplification with increasing concentration of template cDNA. […] RNA expression of target genes was calculated based on the real-time PCR efficiency E and the threshold crossing point (CP) and is expressed relative to the reference gene beta-actin.

TNF-α [5] = experiment: Plasma TNF-α ELISA; type: in vivo, rat; settings: GK rats, LA chronic therapy
Method: Plasma TNF-α levels from various experimental groups were determined using a rat TNF-α ELISA kit, and tissue protein content was determined using bovine serum albumin as a standard.

[6] = test system: thiobarbituric acid reactive substances; experiment: Aortic content of TBARS (lipid peroxidation); type: in vivo, rat; settings: aorta of LA-treated GK rats
Method: With regard to lipid peroxidation, aortic tissues were homogenized in ice-cold tris-hydrochloric acid/buffer (pH 7.4) and butylated hydroxytoluene (BHT). Homogenates were centrifuged at 3,000×g at 4° C. for 10 min. An aliquot of the supernatant was combined with N-methyl-2-phenylindol (10.3) mmol/l in acetonitrile and methanol in the presence of methane sulfonic acid and BHT and the amount of malondialdehyde and 4-hydroxy-2-nonenal was assessed.

## O=C(O)CCCCC1CCSS1 (stereo not drawn) [LA, alpha-lipoic acid]
NF-κB [1]
  NF-κB expression: significant increase
NF-κB [2]
  NF-κB expression: significant increase
[3]
  LDH release into cell culture media (necrotic cell death) in response to HP: reduces cell death
Aortic vessels
  nuclear EB fluorescence in aortic vessels: significantly reduced
Caspase 3/7
  reduction of caspase 3/7 in diabetic arteries: 48%
TNF-α [4]
  diabetes related up-regulation of TNF-α mRNA (aorta): Reversal
TNF-α [5]
  diabetes related up-regulation of TNF-α protein (plasma): Reversal
[6]
  oxidative stress-mediated damage to lipid (TBARS): partially reversed

— patent US8735443B2, “Method of treating diabetes-related vascular complications” (Kuwait University, priority 2008, dated 2014)
